In BindingDB's records for patent US10975056 (Glaxosmithkline Intellectual Property Development, 2021):

Biological target: DNA (cytosine-5)-methyltransferase 1 (Homo sapiens, UniProt P26358)
Assay: Biochemical Activity Assay
Description: Biochemical activity of DNMT1 analyzed using SPA technology. […] Low control wells contained 5 μL of buffer instead of enzyme. Following a 40 minute incubation, the reaction was quenched upon the addition of 10 μL of stop mixture containing 1 mM SAM (Sigma A7007) and 2 mg/mL PEI beads (Perkin Elmer RPNQ0098).

Chain of DNA (cytosine-5)-methyltransferase 1 (P26358 whole entry): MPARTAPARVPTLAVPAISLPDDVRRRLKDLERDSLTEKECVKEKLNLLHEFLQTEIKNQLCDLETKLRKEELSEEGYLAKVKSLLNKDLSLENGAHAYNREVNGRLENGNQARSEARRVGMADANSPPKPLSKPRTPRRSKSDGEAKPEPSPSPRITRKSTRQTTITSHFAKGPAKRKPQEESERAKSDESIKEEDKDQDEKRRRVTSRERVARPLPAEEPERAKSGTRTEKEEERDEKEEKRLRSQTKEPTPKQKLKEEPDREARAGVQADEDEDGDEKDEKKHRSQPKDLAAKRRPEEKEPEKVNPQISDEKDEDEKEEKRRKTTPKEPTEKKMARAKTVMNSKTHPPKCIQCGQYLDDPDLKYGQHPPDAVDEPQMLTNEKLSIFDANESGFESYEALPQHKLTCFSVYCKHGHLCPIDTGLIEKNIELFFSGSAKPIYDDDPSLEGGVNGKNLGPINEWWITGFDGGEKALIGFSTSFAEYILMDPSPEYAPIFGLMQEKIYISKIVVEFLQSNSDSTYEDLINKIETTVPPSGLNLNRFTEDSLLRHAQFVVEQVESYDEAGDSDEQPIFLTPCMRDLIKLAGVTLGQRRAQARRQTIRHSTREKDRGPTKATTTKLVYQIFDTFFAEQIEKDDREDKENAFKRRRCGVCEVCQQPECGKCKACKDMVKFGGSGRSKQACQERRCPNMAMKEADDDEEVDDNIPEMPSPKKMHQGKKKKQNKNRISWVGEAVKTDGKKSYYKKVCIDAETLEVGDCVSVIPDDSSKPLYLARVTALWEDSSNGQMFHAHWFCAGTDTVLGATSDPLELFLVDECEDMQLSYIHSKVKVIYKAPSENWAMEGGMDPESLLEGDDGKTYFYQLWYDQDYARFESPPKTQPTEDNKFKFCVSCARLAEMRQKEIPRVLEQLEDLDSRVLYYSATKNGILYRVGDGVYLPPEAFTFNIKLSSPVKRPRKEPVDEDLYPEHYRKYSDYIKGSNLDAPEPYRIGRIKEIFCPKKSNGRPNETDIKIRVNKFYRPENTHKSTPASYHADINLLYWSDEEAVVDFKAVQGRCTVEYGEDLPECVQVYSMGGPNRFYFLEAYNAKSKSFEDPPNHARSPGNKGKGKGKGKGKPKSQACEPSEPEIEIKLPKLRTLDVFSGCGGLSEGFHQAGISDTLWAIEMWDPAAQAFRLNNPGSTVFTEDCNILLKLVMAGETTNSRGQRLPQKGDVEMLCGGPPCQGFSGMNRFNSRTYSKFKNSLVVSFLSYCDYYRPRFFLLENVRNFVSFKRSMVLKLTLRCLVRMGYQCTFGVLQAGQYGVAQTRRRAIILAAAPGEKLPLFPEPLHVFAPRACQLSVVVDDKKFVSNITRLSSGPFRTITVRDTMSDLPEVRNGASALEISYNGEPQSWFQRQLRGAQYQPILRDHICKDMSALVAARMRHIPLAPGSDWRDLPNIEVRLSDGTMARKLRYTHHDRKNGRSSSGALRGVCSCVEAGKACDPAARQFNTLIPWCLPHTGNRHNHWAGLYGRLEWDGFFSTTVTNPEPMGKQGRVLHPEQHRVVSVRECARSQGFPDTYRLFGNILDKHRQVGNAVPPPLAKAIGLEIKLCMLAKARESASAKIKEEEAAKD

IC50, < 320 nM:
CCc1c(C#N)c(SCc2ccc(S(N)(=O)=O)cc2)nc(N2CCCN(C)CC2)c1C#N [US10975056, Example 76]
CCc1c(C#N)c(SC(C(N)=O)c2ccccc2)nc(N2CCC(NCC3(C)CCC3)CC2)c1C#N (centres undefined) [US10975056, Example 466]
CCc1c(C#N)c(SC(C(N)=O)c2ccccc2)nc(N2CCC(N3[C@H](C)CC[C@H]3C)CC2)c1C#N (some centres undefined) [US10975056, Example 472]
CCc1c(C#N)c(SC(C(N)=O)c2ccccc2)nc(N(C)CC(=O)N2CC[C@@H](CO)C2)c1C#N (some centres undefined) [US10975056, Example 652]
